Like-named read-outs stand apart in the source and are kept apart here.
Target: T1, G1 APOL1 (Homo sapiens, UniProt O14791, I384M/S342G)
T1 construct: expressed in transfected cells
T1 sequence (O14791 28-398 S342G/I384M): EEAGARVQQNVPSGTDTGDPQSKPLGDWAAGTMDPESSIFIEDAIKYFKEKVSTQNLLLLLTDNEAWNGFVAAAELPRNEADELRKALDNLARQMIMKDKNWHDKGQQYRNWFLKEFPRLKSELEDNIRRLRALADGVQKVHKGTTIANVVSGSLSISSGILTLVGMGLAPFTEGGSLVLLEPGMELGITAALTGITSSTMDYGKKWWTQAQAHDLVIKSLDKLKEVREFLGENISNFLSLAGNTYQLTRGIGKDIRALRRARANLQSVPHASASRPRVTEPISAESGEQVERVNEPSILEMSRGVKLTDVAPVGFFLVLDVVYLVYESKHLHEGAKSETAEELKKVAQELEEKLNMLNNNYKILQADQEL
Test: Acute APOL1 Thallium Assay with inducible stable clones of HEK 293 cells
Type: cell-based
Conditions: HEK 293 T-Rex inducible stable clone expressing G1 APOL1
Text: Acute APOL1 Thallium Assay with Inducible Stable Clones of HEK 293 Cells
Apolipoprotein L1 (APOL1) proteins form potassium-permeable cation pores in the plasma membrane. APOL1 risk variants (G1 and G2) induce greater potassium flux than G0 in HEK293 cells. This assay exploits the permeability of thallium (T1+) through ligand-gated potassium channels. The dye produces a bright fluorescent signal upon binding to T1+ conducted through potassium channels. The intensity of the T1+ signal is proportional to the number of potassium channels in the open state. Therefore, it provides a functional indication of the potassium channel activities. During the initial dye-loading step, the T1+ indicator dye as an acetoxymethyl (AM) ester enters the cells through passive diffusion. Cytoplasm esterases cleave the AM ester and relieve its active thallium-sensitive form. The cells are then stimulated with T1+. The increase of fluorescence in the assay represents the influx of T1+ into the cell specifically through the potassium channel (i.e. through APOL1 pores), providing a functional measurement of potassium channel/pore activity. The Thallium assay is conducted with cells expressing G1 APOL1.
APOL1 Cell Line (HEK T-Rex Stable Inducible Cell Line)
• HEK T-Rex System • Tetracycline (Tet) inducible mammalian expression system. • Stably express the Tet repressor to regulate transcription. • Expression under the full-length CMV promoter. • APOL1 stable inducible cell line Clone used: G1 DC3.25 Tissue Culture Media Cell Culture Medium • DMEM+10% FBS+P/S+5 μg/mL blasticidin+1 μg/mL puromycin. • 500 mL DMEM+55 mL FBS+5 mL P/S+280 μL blasticidin S HCl (10 mg/mL)+56 μL puromycin (10 mg/mL). Cell Assay Medium • DMEM with 2% FBS+penicillin streptomycin. Reagents:
Instruments and Equipment • Nuaire cell culture hood, Cat. No. 540-600 • 37° C./5% CO2 incubator link to robotic arm, Liconic: STX110 • Molecular Devices FLIPR^Tetra High throughput cellular screening system, Cat. No. FT0324, Molecular Devices • ThermoFisher MultiDrop 384, Cat. No. 5840300 • Biotek Microfill, Cat. No. ASF1000A-4145 • BioRad TC10 cell counter, Cat. No. 145-0010 Assay Procedures Cells Scaled Up from Frozen Vials • APOL1 G1 3.25 (HEK293 T-Rex) frozen vials: 5 million cells per vial • Step 1, Day 1: Defrost frozen vial into T-225. • Step 2, Day 5: (when 85% confluent): Split one T-225 at 3×10^6 cells per flask. • Step 3, Day 8: Splits cells to set up for the assay plates as described below. Cell Culture
T-Rex APOL1 HEK cells are split twice per week to keep the confluence state below 85% of the culture flask surface area. Cells can be kept until passage 25.
• DMEM high glucose+10% FBS, +P/S, +5 μg/mL blasticidin, +1 μg/mL puromycin. • 500 mL DMEM, +55 mL FBS, +5 mL P/S, +280 μL blasticidin 10 mg/mL, +56 μL Puromycin 10 mg/mL. Assay Media • Opti-MEM reduced serum medium from Invitrogen. Day 1 Preparation of Cell Assay Plates • Culture medium is removed from the x cm^2 T-flask by aspiration. • The cell monolayer is rinsed with PBS 1× at room temperature. PBS is removed by aspiration. • Cells are trypsinized using Trypsin. • The flasks are incubated at room temperature for 2-3 minutes. • Complete DMEM medium is then added. Cell suspension is then transferred to a 50 mL Falcon polypropylene tube. • Cells are then counted using a BioRad TC10 cell counter and the required amount of cells are centrifuged at 1200 RPM for 5 minutes. Required amount is 1.3×10^6 cells/mL APOL1 T-Rex HEK cells. • The pellet is suspended in the assay medium. • Using the MultiDrop, add 20 μL to each well (corresponds to 26000 cells total per well) of a 384-well black, transparent, flat bottom Poly-D coated plate. • Tetracycline as prepared in the following section is added to the cells before plating to induce APOL1 expression. • Plates are left at room temperature for 20 to 30 minutes before incubation at 37° C. and 5% CO2. […]

[1] = read-out: Thallium Assay (IC50)

IC50 [1] | SMILES | IC50 (Thallium Assay (IC50))
– | NCC(=O)N[C@H]1C[C@H](c2c(-c3ccc(F)cc3)[nH]c3c(F)cc(F)cc32)C1 [Compound 137] | < 0.25 µM
> 1 µM | O=C1CC(CC(=O)N[C@H]2C[C@H](c3c(-c4ccc(F)cc4)[nH]c4c(F)cc(F)cc43)C2)CC(=O)N1 [Compound 132] | –
0.25 to 1 µM | Cc1cc(-c2[nH]c3c(F)cc(F)cc3c2C2CC(N)C2)ccc1F (mixture of isomers) [Compound 11, 3-[5,7-difluoro-2-(4-fluoro-3-methyl-phenyl)-1H-indol-3-yl]cyclobutanamine] | –
> 1 µM | CN(C)S(=O)(=O)NC[C@H]1C[C@H](c2c(-c3ccc(F)cc3)[nH]c3c(F)cc(F)cc32)C1 [Compound 370, 3-[3-[(dimethylsulfamoylamino)methyl]cyclobutyl]-5,7-difluoro-2-(4-fluorophenyl)-1H-indole] | –
0.25 to 1 µM | NC(=O)C(=O)NC[C@H]1C[C@H](c2c(-c3ccc(F)cc3)[nH]c3c(F)cc(F)cc32)C1 [Compound 451] | –
< 0.25 µM | O=S(=O)(CCO)N[C@H]1C[C@H](c2c(-c3ccc(F)cc3)[nH]c3c(F)cc(F)cc32)C1 [Compound 146] | –
> 1 µM | N[C@@H](C(=O)NC[C@H]1C[C@H](c2c(-c3ccc(F)cc3)[nH]c3c(F)cc(F)cc32)C1)C1CC1 [Compound 264] | –
0.25 to 1 µM | CC(=O)N[C@@H](CO)C(=O)NC[C@H]1C[C@H](c2c(-c3ccc(F)cc3)[nH]c3c(F)cc(F)cc32)C1 [Compound 224] | –
0.25 to 1 µM | O=C(CO)N[C@H]1C[C@@H](c2c(-c3ccc(F)cc3)[nH]c3c(F)cc(F)cc32)C1 [Compound 29, N-((1s,3s)-3-(5,7-difluoro-2-(4-fluorophenyl)-1H-indol-3-yl)cyclobutyl)-2-hydroxyacetamide] | –
> 1 µM | NC(=O)C1(C(=O)NC[C@H]2C[C@H](c3c(-c4ccc(F)cc4)[nH]c4c(F)cc(F)cc43)C2)CC1 [Compound 452] | –
0.25 to 1 µM | OCCNC1CC(c2c(-c3ccc(F)cc3)[nH]c3c(F)cc(F)cc23)C1 (centres unmarked) [Compound 25] | –
0.25 to 1 µM | O=C(CCO)NC[C@H]1C[C@@H](c2c(-c3ccc(F)cc3)[nH]c3c(F)cc(F)cc32)C1 [Compound 206] | –
> 1 µM | NCCCNCC1CC(c2c(-c3ccc(F)cc3)[nH]c3c(F)cc(F)cc23)C1 (centres unmarked) [Compound 409] | –
> 1 µM | CN(C1COC1)C1CC(c2c(-c3ccc(F)cc3)[nH]c3c(F)cc(F)cc23)C1 (centres unmarked) [Compound 24] | –
> 1 µM | O=C1CC(C(=O)NC[C@H]2C[C@H](c3c(-c4ccc(F)cc4)[nH]c4c(F)cc(F)cc43)C2)C(=O)N1 (some centres unmarked) [Compound 287] | –
> 1 µM | CN1CCCC(CC(=O)N[C@H]2C[C@@H](c3c(-c4ccc(F)cc4)[nH]c4c(F)cc(F)cc43)C2)C1 (some centres unmarked) [Compound 39] | –
> 1 µM | O=C(CC1CCCOC1)N[C@H]1C[C@@H](c2c(-c3ccc(F)cc3)[nH]c3c(F)cc(F)cc32)C1 (some centres unmarked) [Compound 53] | –
> 1 µM | OCC1(NCC2CC(c3c(-c4ccc(F)cc4)[nH]c4c(F)cc(F)cc34)C2)CC1 (centres unmarked) [Compound 397] | –
> 1 µM | CC[C@H](NC(=O)OC(C)(C)C)C(=O)NC[C@H]1C[C@H](c2c(-c3ccc(F)cc3)[nH]c3c(F)cc(F)cc32)C1 [Compound 258] | –
> 1 µM | N#CCS(=O)(=O)N[C@H]1C[C@@H](c2c(-c3ccc(F)cc3)[nH]c3c(F)cc(F)cc32)C1 [Compound 87] | –

IC50 [1] | SMILES | IC50 (Thallium Assay (IC50))
> 1 µM | O=C1CC(C(=O)N[C@H]2C[C@H](c3c(-c4ccc(F)cc4)[nH]c4c(F)cc(F)cc43)C2)CN1 (some centres unmarked) [Compound 140] | –
0.25 to 1 µM | Fc1ccc(-c2[nH]c3c(F)cc(F)cc3c2C2CC(NCC(F)F)C2)cc1 (centres unmarked) [Compound 26] | –
> 1 µM | COCC(C)NS(=O)(=O)NC[C@H]1C[C@H](c2c(-c3ccc(F)cc3)[nH]c3c(F)cc(F)cc32)C1 (mixture of isomers) [Compound 342] | –
> 1 µM | O=C(CCN1CCCC1)NC[C@H]1C[C@@H](c2c(-c3ccc(F)cc3)[nH]c3c(F)cc(F)cc32)C1 [Compound 296] | –
> 1 µM | O=C1CCC[C@@H](C(=O)NC[C@H]2C[C@H](c3c(-c4ccc(F)cc4)[nH]c4c(F)cc(F)cc43)C2)N1 [Compound 253] | –
> 1 µM | O=C1CC(C(=O)N[C@H]2C[C@@H](c3c(-c4ccc(F)cc4)[nH]c4c(F)cc(F)cc43)C2)C(=O)N1 (some centres unmarked) [Compound 65] | –
< 0.25 µM | CC(=O)N[C@H](C)C(=O)NC[C@H]1C[C@H](c2c(-c3ccc(F)cc3)[nH]c3c(F)cc(F)cc32)C1 [Compound 204] | –
> 1 µM | O=C(NC[C@H]1C[C@H](c2c(-c3ccc(F)cc3)[nH]c3c(F)cc(F)cc32)C1)c1cccnn1 [Compound 297] | –
0.25 to 1 µM | N#CCS(=O)(=O)NC[C@H]1C[C@H](c2c(-c3ccc(F)cc3)[nH]c3c(F)cc(F)cc32)C1 [Compound 414] | –
> 1 µM | CC(C)(C)OC(=O)NCCNCC1CC(c2c(-c3ccc(F)cc3)[nH]c3c(F)cc(F)cc23)C1 (centres unmarked) [Compound 401] | –
> 1 µM | Cn1ccnc1S(=O)(=O)N[C@H]1C[C@@H](c2c(-c3ccc(F)cc3)[nH]c3c(F)cc(F)cc32)C1 [Compound 85] | –
> 1 µM | C[C@@H](N)C(=O)NC[C@H]1C[C@H](c2c(-c3ccc(F)cc3)[nH]c3c(F)cc(F)cc32)C1 [Compound 236] | –
0.25 to 1 µM | O=C(N1CC(c2c(-c3ccc(F)cc3)[nH]c3c(F)cc(F)cc23)C1)C1(O)CC1 [Compound 442, (3-(5,7-difluoro-2-(4-fluorophenyl)-1H-indol-3-yl)azetidin-1-yl)(1-hydroxycyclopropyl)methanone] | –
0.25 to 1 µM | OCC1(NC2CC(c3c(-c4ccc(F)cc4)[nH]c4c(F)cc(F)cc34)C2)CC1 (centres unmarked) [Compound 21] | –
> 1 µM | CC(CC(=O)NC[C@H]1C[C@@H](c2c(-c3ccc(F)cc3)[nH]c3c(F)cc(F)cc32)C1)N1CCOCC1 (mixture of isomers) [Compound 318] | –
0.25 to 1 µM | O=C(NC[C@H]1C[C@@H](c2c(-c3ccc(F)cc3)[nH]c3c(F)cc(F)cc32)C1)C1CCO1 (some centres unmarked) [Compound 220] | –
0.25 to 1 µM | CNC(=O)c1noc(CNS(=O)(=O)NC[C@H]2C[C@H](c3c(-c4ccc(F)cc4)[nH]c4c(F)cc(F)cc43)C2)n1 [Compound 337] | –
> 1 µM | C[C@@]1(C(=O)NC[C@H]2C[C@H](c3c(-c4ccc(F)cc4)[nH]c4c(F)cc(F)cc43)C2)CCCN1 [Compound 289] | –
> 1 µM | CC(C)C(CO)NCC1CC(c2c(-c3ccc(F)cc3)[nH]c3c(F)cc(F)cc23)C1 (centres unmarked) [Compound 402] | –
> 1 µM | O=S(=O)(N[C@H]1C[C@@H](c2c(-c3ccc(F)cc3)[nH]c3c(F)cc(F)cc32)C1)C1CCOCC1 [Compound 86] | –

SMILES | IC50 [1] | IC50 (Thallium Assay (IC50))
O=C(CO)N[C@H]1C[C@H](c2c(-c3ccc(F)cc3)[nH]c3c(F)cc(F)cc32)C1 [Compound 429, N-((1r,3r)-3-(5,7-difluoro-2-(4-fluorophenyl)-1H-indol-3-yl)cyclobutyl)-2-hydroxyacetamide] | 0.25 to 1 µM | –

From US12281102B2, “Inhibitors of APOL1 and methods of using same” (Vertex Pharmaceuticals Incorporated, priority 2020, dated 2025)
